From publication PMC8878317, “Chemogenomics identifies acetyl-coenzyme A synthetase as a target for malaria treatment and prevention” (Cell Chemical Biology, 2022)

System: P. falciparum 3D7 parasites
Test: Metabolomic profiling of compound-treated parasites (LC/MS);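 on Metabolite data: 3-Phosphoglycerate: Log2 fold change in abundance versus untreated parasite controls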;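 on Metabolite data: Myo-Inositol: Log2 fold change in abundance versus untreated parasite controls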;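 on Metabolite data: N-Carbamoyl-L-Aspartate: Log2 fold change in abundance versus untreated parasite controls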;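 on Metabolite data: Nicotinate: Log2 fold change in abundance versus untreated parasite controls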
Assay type: cell-based
Parameters: Metabolite data: dTMP / Metabolite data: GMP / Metabolite data: S-Adenosyl-L-Homocysteine / Metabolite data: 1_3-Bisphosphoglyceric acid: scale not given here
Method: The metabolite extraction protocol was performed as described elsewhere ([Allman et al., 2016]). Briefly, 1 mL of trophozoites that were magnetically purified to a concentration of 1×10^8 parasites/mL were placed into wells with 4 mL of RPMI 1640 media and allowed to recover for one hour. […] The culture was incubated for another 2.5 hr. The culture was centrifuged and quenched with 90% methanol containing 0.25 μM ^13C,^15N-Labeled-Aspartate, vortexed, and centrifuged. The supernatant was transferred to a new tube and dried for storage. Prior to analysis, the samples were resuspended to a final concentration of 1×10^8 parasites/mL in a solution of 3% methanol:water containing 1 μM chlorpropamide as an internal standard.
The chromatographic conditions used in this experiment were performed with slight modifications from previous methods ([Zhang et al., 2018]). Briefly, a Waters XSelect HSS C18 column was used on a gradient reverse-phase chromatographic configuration with 97:3 water:methanol with 10 mM tributylamine and 15 mM acetic acid (solvent A) and methanol (solvent B). A Thermo-Scientific Exactive Plus Orbitrap mass spectrometer was operated in negative mode for the detection of the metabolites. Peak picking and integration were performed using El-Maven LC/MS data processing software. The peak data were then exported to Excel where metabolite areas were normalized to the internal standards, blank subtracted, and averaged by condition.

## Cc1cc(Nc2ccc3ccccc3c2)n2ncnc2n1 [DSM1]
  Metabolite data: 1_3-Bisphosphoglyceric acid: 0
  Metabolite data: 2_3-Diphosphoglyceric acid: -0.2991
  Metabolite data: 3-Phosphoglycerate: -0.4141
  Metabolite data: 4-Aminobutyrate: 0.009246
  Metabolite data: 4-Phosphopantothenate: -0.5403
  Metabolite data: 4-phosphopantetheine: 0
  Metabolite data: 5-aminopentanoic acid: 0
  Metabolite data: 5-phosphoribosyl-1-pyrophosphate: 0
  Metabolite data: 6-Phospho-D-Gluconate: -0.253
  Metabolite data: ADP-D-Glucose: -0.1243
  Metabolite data: Acetyl-CoA: -0.3243
  Metabolite data: Acetyllysine: -0.16
  Metabolite data: Aconitate: -0.837
  Metabolite data: CDP: -0.7937
  Metabolite data: CDP-Ethanolamine: -0.6098
  Metabolite data: CDP-choline: 0
  Metabolite data: CMP: -1.862
  Metabolite data: CTP: -3.137
  Metabolite data: Citrate/Isocitrate: -0.6885
  Metabolite data: Cyclic-AMP: -0.9051
  Metabolite data: Dihydroorotate: 2.672
  Metabolite data: FAD: -0.1625
  Metabolite data: FMN: -0.9996
  Metabolite data: Fructose-1,6-Bisphosphate: -0.4129
  Metabolite data: Fumarate: -1.402
  Metabolite data: GDP: 0.4797
  Metabolite data: GMP: 0.1634
  Metabolite data: GTP: -1.061
  Metabolite data: Glucose-1/6-Phosphate: -0.4979
  Metabolite data: Glutathione Disulfide: -0.412
  Metabolite data: Hexose: 0
  Metabolite data: Hydroxyisocaproic acid: 0
  Metabolite data: Indole: -0.8571
  Metabolite data: Ketoleucine: 0
  Metabolite data: L-arginino-succinate: 0
  Metabolite data: Lactate: -0.809
  Metabolite data: Malate: -1.549
  Metabolite data: Myo-Inositol: -1.331
  Metabolite data: N-Acetyl-Glutamate: -0.2257
  Metabolite data: N-Acetyl-L-Alanine: -0.1646
  Metabolite data: N-Acetyl-L-Ornithine: -0.5891
  Metabolite data: N-Carbamoyl-L-Aspartate: 2.4139
  Metabolite data: NAD+: -0.1986
  Metabolite data: NADH: 0.07835
  Metabolite data: NADP+: -0.1908
  Metabolite data: NADPH: -0.3915
  Metabolite data: Nicotinate: -0.7359
  Metabolite data: Octulose 8/1-Phosphate: -0.4585
  Metabolite data: Orotate: -2.835
  Metabolite data: PD: -0.209
  Metabolite data: PE: -0.4415
  Metabolite data: PEEK: -0.4847
  Metabolite data: Phenol Red: 0
  Metabolite data: Pyroglutamic acid: -0.2671
  Metabolite data: S-Adenosyl-L-Homocysteine: -0.1944
  Metabolite data: S-methyl-5'-thioadenosine: -0.4315
  Metabolite data: SD: -0.8655
  Metabolite data: Sedoheptulose Bisphosphate: -0.2224
  Metabolite data: UDP: -2.0359
  Metabolite data: UDP-D-Glucose: -0.2988
  Metabolite data: UDP-D-Glucuronate: -0.2168
  Metabolite data: UDP-N-Acetyl-Glucosamine: -0.4693
  Metabolite data: UMP: -2.06
  Metabolite data: UTP: -4.388
  Metabolite data: a-ketoglutarate: -0.7348
  Metabolite data: acetyl-aspartate: 0
  Metabolite data: arginine: 0
  Metabolite data: asparagine: 0
  Metabolite data: aspartate: 0
  Metabolite data: biotin: 0
  Metabolite data: chlorpropamide: 0
  Metabolite data: coenzyme A: 0
  Metabolite data: dAMP: 1.7179
  Metabolite data: dATP: -0.3141
  Metabolite data: dCDP: -0.1509
  Metabolite data: dCMP: -1.099
  Metabolite data: dCTP: -2.549
  Metabolite data: dGDP/ADP: 0.1331
  Metabolite data: dGMP/AMP: 0.02924
  Metabolite data: dGTP/ATP: 0
  Metabolite data: dTDP: -1.607
  Metabolite data: dTMP: -2.786
  Metabolite data: dTTP: -3.44
  Metabolite data: folate: 0
  Metabolite data: glucono-lactone: 0
  Metabolite data: glutamate: 0
  Metabolite data: glutamine: 0
  Metabolite data: glutathione: 0
  Metabolite data: histidine: 0
  Metabolite data: hydroxyproline/Aminolevulinate: 0
  Metabolite data: isoleucine: 0
  Metabolite data: leucine: 0
  Metabolite data: maleic acid: 0
  Metabolite data: methionine: 0
  Metabolite data: nicotinamide mononucleotide: 0
  Metabolite data: orotidine-5'-phosphate: 0

## COc1cc2[nH]c(C)c(-c3ccc(Oc4ccc(OC(F)(F)F)cc4)cc3)c(=O)c2cc1Cl [ELQ-300]
  Metabolite data: 1_3-Bisphosphoglyceric acid: 0
  Metabolite data: 2_3-Diphosphoglyceric acid: -0.1098
  Metabolite data: 3-Phosphoglycerate: 0.01477
  Metabolite data: 4-Aminobutyrate: 0.29
  Metabolite data: 4-Phosphopantothenate: -0.3711
  Metabolite data: 4-phosphopantetheine: 0
  Metabolite data: 5-aminopentanoic acid: 0
  Metabolite data: 5-phosphoribosyl-1-pyrophosphate: 0
  Metabolite data: 6-Phospho-D-Gluconate: 0.1987
  Metabolite data: ADP-D-Glucose: -0.03292
  Metabolite data: Acetyl-CoA: -0.7931
  Metabolite data: Acetyllysine: -0.0938
  Metabolite data: Aconitate: 0.3201
  Metabolite data: CDP: -0.9142
  Metabolite data: CDP-Ethanolamine: -0.4266
  Metabolite data: CDP-choline: 0
  Metabolite data: CMP: -0.5539
  Metabolite data: CTP: -0.7898
  Metabolite data: Citrate/Isocitrate: 0.1898
  Metabolite data: Cyclic-AMP: 0.1104
  Metabolite data: Dihydroorotate: 5.061
  Metabolite data: FAD: 0.09303
  Metabolite data: FMN: -1.009
  Metabolite data: Fructose-1,6-Bisphosphate: 0.1196
  Metabolite data: Fumarate: 0.1542
  Metabolite data: GDP: -0.04006
  Metabolite data: GMP: 0.4588
  Metabolite data: GTP: 0.1697
  Metabolite data: Glucose-1/6-Phosphate: 0.2608
  Metabolite data: Glutathione Disulfide: -0.1199
  Metabolite data: Hexose: 0
  Metabolite data: Hydroxyisocaproic acid: 0
  Metabolite data: Indole: 0.2721
  Metabolite data: Ketoleucine: 0
  Metabolite data: L-arginino-succinate: 0
  Metabolite data: Lactate: -0.08432
  Metabolite data: Malate: 0.0586
  Metabolite data: Myo-Inositol: -0.4815
  Metabolite data: N-Acetyl-Glutamate: 0.1479
  Metabolite data: N-Acetyl-L-Alanine: -0.6073
  Metabolite data: N-Acetyl-L-Ornithine: -0.1715
  Metabolite data: N-Carbamoyl-L-Aspartate: 4.761
  Metabolite data: NAD+: 0.09044
  Metabolite data: NADH: 1.43
  Metabolite data: NADP+: -0.1602
  Metabolite data: NADPH: 3.029
  Metabolite data: Nicotinate: 0.05305
  Metabolite data: Octulose 8/1-Phosphate: -0.704
  Metabolite data: Orotate: 0.01858
  Metabolite data: PD: -0.006669
  Metabolite data: PE: -0.3407
  Metabolite data: PEEK: -0.3859
  Metabolite data: Phenol Red: 0
  Metabolite data: Pyroglutamic acid: 0.05668
  Metabolite data: S-Adenosyl-L-Homocysteine: -1.868
  Metabolite data: S-methyl-5'-thioadenosine: -0.1055
  Metabolite data: SD: -0.2791
  Metabolite data: Sedoheptulose Bisphosphate: 0.0682
  Metabolite data: UDP: -1.596
  Metabolite data: UDP-D-Glucose: -0.0232
  Metabolite data: UDP-D-Glucuronate: 0.002049
  Metabolite data: UDP-N-Acetyl-Glucosamine: -0.1795
  Metabolite data: UMP: -0.8903
  Metabolite data: UTP: -1.292
  Metabolite data: a-ketoglutarate: 0.1255
  Metabolite data: acetyl-aspartate: 0
  Metabolite data: arginine: 0
  Metabolite data: asparagine: 0
  Metabolite data: aspartate: 0
  Metabolite data: biotin: 0
  Metabolite data: chlorpropamide: 0
  Metabolite data: coenzyme A: 0
  Metabolite data: dAMP: -0.0907
  Metabolite data: dATP: 0.4618
  Metabolite data: dCDP: -0.107
  Metabolite data: dCMP: -0.1246
  Metabolite data: dCTP: -0.4381
  Metabolite data: dGDP/ADP: -0.01599
  Metabolite data: dGMP/AMP: -0.06466
  Metabolite data: dGTP/ATP: 0
  Metabolite data: dTDP: -1.258
  Metabolite data: dTMP: -1.023
  Metabolite data: dTTP: -1.011
  Metabolite data: folate: 0
  Metabolite data: glucono-lactone: 0
  Metabolite data: glutamate: 0
  Metabolite data: glutamine: 0
  Metabolite data: glutathione: 0
  Metabolite data: histidine: 0
  Metabolite data: hydroxyproline/Aminolevulinate: 0
  Metabolite data: isoleucine: 0
  Metabolite data: leucine: 0
  Metabolite data: maleic acid: 0
  Metabolite data: methionine: 0
  Metabolite data: nicotinamide mononucleotide: 0
  Metabolite data: orotidine-5'-phosphate: 0
